{
  "source": "patent US6740634B1",
  "about": "“Sustained release compositions, process for producing the same and utilization thereof” (Takeda Chemical Industries, Ltd., priority 1998, dated 2004)",
  "assay_type": "physicochemical",
  "method": "To this salt, 0.5 ml of water was added, followed by stirring at room temperature for 4 hours, after which the liquid was filtered through a 0.2 μm filter and quantified by HPLC. The peptide B and 3-hydroxy-2-naphthoic acid concentrations were 2.37 g/l and 0.751 g/l, respectively.",
  "note": "Read-outs that look alike come from different tables or passages of the source.",
  "data": [
    {"smiles": "CCNC(=O)[C@@H]1CCCN1C(=O)[C@H](CCCNC(=N)N)NC(=O)[C@H](CC(C)C)NC(=O)[C@@H](CC(C)C)NC(=O)[C@H](Cc1ccc(O)cc1)NC(=O)[C@H](CO)NC(=O)[C@H](Cc1c[nH]c2ccccc12)NC(=O)[C@H](Cc1c[nH]cn1)NC(=O)[C@@H]1CCC(=O)N1", "note": "[acetate of peptide B, reference compound]", "values": [
      {"measurement": "solubility", "setting": "water solubility", "value": "≥ 1000", "unit": "mg/mL"}
    ]},
    {"smiles": "CCNC(=O)[C@@H]1CCCN1C(=O)[C@H](CCCNC(=N)N)NC(=O)[C@H](CC(C)C)NC(=O)[C@@H](CC(C)C)NC(=O)[C@H](Cc1ccc(O)cc1)NC(=O)[C@H](CO)NC(=O)[C@H](Cc1c[nH]c2ccccc12)NC(=O)[C@H](Cc1c[nH]cn1)NC(=O)[C@@H]1CCC(=O)N1", "values": [
      {"measurement": "water solubility relative to the water solubility of the acetate of peptide B", "value": "not more than 1/100"},
      {"measurement": "solubility", "setting": "3-hydroxy-2-naphthoic acid concentration in saturated aqueous solution (water solubility of the salt)", "value": 0.751, "unit": "mg/mL"},
      {"measurement": "solubility", "setting": "peptide B concentration in saturated aqueous solution (water solubility of the salt)", "value": 2.37, "unit": "mg/mL"}
    ]}
  ]
}
